Measured values published in PMC6445168, “Design, synthesis and antimalarial activity of novel bis{N-[(pyrrolo[1,2-a]quinoxalin-4-yl)benzyl]-3-aminopropyl}amine derivatives” (Journal of Enzyme Inhibition and Medicinal Chemistry, 2017).
Structures can show the parent of a compound that is named as a salt. Where two headings read alike, the source gives them in different places. Each block holds one compound with its values, some of them ahead of it.

Tests used:
[1] = test system: P. falciparum CQ-resistant strain W2; assay: In vitro antiplasmodial activity, SYBR Green I fluorescence-based method, W2 strain; format: cell-based, Plasmodium falciparum; settings: for IC50: Plasmodium falciparum, read-out: P. falciparum strains IC50 values, W2; for Selectivity Index HepG2/W2: ratio CC50 HepG2 / IC50 W2
Protocol: (§1) The in vitro antiplasmodial activities were tested over concentrations ranging from 39 nM to 40 μM against culture-adapted Plasmodium falciparum reference strains 3D7 and W2. […] The parasites were cultivated in RPMI medium (Sigma-Aldrich, Lyon, France) supplemented with 0.5% Albumax I (Life Technologies corporation, Paisley, United Kingdom), hypoxanthine (Sigma-Aldrich), gentamicin (Sigma-Aldrich), and human erythrocytes and were incubated at 37 °C in a candle jar, as described previously. The P. falciparum drug susceptibility test was carried out in 96-well flat bottom sterile plates under a final volume of 250 μL. After a 48 h incubation with the drugs, quantities of DNA in treated and control cultures of parasites in human erythrocytes were compared according to the SYBR Green I (Sigma-Aldrich) fluorescence-based method[38]^,[39]. Briefly, after incubation, plates were frozen at -20 °C until use. They were then left to thaw for 2 h at room temperature and 100 μL of the homogenized culture were transferred to 96-well flat bottom sterile black plates (Nunc Inc) already containing 100 μL of the SYBR Green I lysis buffer (2xSYBR Green, 20 mM Tris base pH 7.5, 5 mM EDTA, 0.008% w/v saponin, 0.08% w/v Triton X-100). […] Plates were incubated for 1 h at room temperature and then read on a fluorescence plate reader (Tecan, Austria) using excitation and emission wavelengths of 485 and 535 nm, respectively.

[2] = test system: P. falciparum CQ-sensitive strain 3D7; assay: In vitro antiplasmodial activity, SYBR Green I fluorescence-based method, 3D7 strain; format: cell-based, Plasmodium falciparum; settings: for IC50: Plasmodium falciparum, 3D7, 48 h, read-out: P. falciparum strains IC50 values, 3D7; for Selectivity Index HepG2/3D7: ratio CC50 HepG2 / IC50 3D7
Protocol: as §1

[3] = test system: L. donovani (MHOM/IN/00/DEVI) promastigotes; assay: In vitro antileishmanial activity on promastigotes, MTT assay; format: cell-based; settings: Leishmania donovani, 72 h incubation, mean ± SD of three independent experiments
Protocol: L. donovani (MHOM/IN/00/DEVI) used in this study was provided by the CNR Leishmania (Montpellier, France). The effects of the tested compounds on the growth of L. donovani (MHOM/IN/00/DEVI)promastigotes were assessed by MTT assay[41] .Briefly, promastigotes in log-phase in Schneider′s medium supplemented with 20% fetal calf serum (FCS), 2 mM L-glutamine and antibiotics (100 U/mL penicillin and 100 μg/mL streptomycin), were incubated at an average density of 10^6 parasites/mL in sterile 96-well plates with various concentrations of compounds dissolved in DMSO (final concentration less than 0.5% v/v), in duplicate. Appropriate controls treated by DMSO and pentamidine or amphotericin B (reference drugs purchased from Sigma-Aldrich) were added to each set of experiments. After a 72 h incubation period at 27 °C, parasite metabolic activity was determined. Each plate-well was then microscope-examined for detecting possible precipitate formation. 20 μL of MTT 3–(4,5-dimethylthiazol-2-yl)-2,5-diphenyltetrazolium bromide) solution (5 mg/mL) were added to each well followed by incubation for another 4 h. The enzyme reaction was then stopped by addition of 100 μL of 50% isopropanol – 10% sodium dodecyl sulfate[42] .Plates were shaken vigorously (300 rpm) for 10 minutes and the absorbance measured in a plate reader at 570 nm in a BIO-TEK ELx808 Absorbance Microplate Reader. […] IC50 were calculated by non-linear regression analysis processed on doseresponse curves, using TableCurve 2D V5.0 software. IC50 values represent the mean value calculated from three independent experiments.

[4] = Cytotoxicity evaluation, MTT assay; format: cell-based, human; settings: human, HepG2 cells (hepatocarcinoma cell line, ATCC HB-8065); HepG2, 72 h incubation, mean ± SD of three independent experiments
Protocol: (§2) These assays were performed toward the human HepG2 cell line (HepG2 CC50). […] These cells express many of the hepatocyte-specific metabolic enzymes, thus enabling the cytotoxicity of tested product metabolites to be evaluated. […] Duplicate assays were performed for each sample. Each plate-well was then microscope-examined for detecting possible precipitate formation before the medium was aspirated from the wells. 100 μL of MTT solution (0.5 mg/mL in medium without FCS) were then added to each well. […] After this time, the MTT solution was removed and DMSO (100 μL) was added to dissolve the resulting blue formazan crystals. Plates were shaken vigorously (300 rpm) for 5 minutes. The absorbance was measured at 570 nm with 630 nm as reference wavelength spectrophotometer using a BIO-TEK ELx808 Absorbance Microplate Reader. DMSO was used as blank and doxorubicin (Sigma Aldrich) as positive control. Cell viability was calculated as percentage of control (cells incubated without compound). The 50% cytotoxic concentration was determined from the dose-response curve by using the TableCurve 2D V5.0 software (Systat Software, San Jose, CA).

[5] = test system: Plasmodium telomeric quadruplex FPf1T; assay: FRET melting experiments, FPf1T; format: binding, Plasmodium falciparum; settings: compound at 5 μM, 200 nM oligonucleotide, K+ condition; result in words
Protocol: (§3) FRET melting experiments were performed with dual-labeled oligonucleotides mimicking the Plasmodium telomeric sequences FPf1T [FAM-^5′(GGGTTTA)3-GGG^3′-TAMRA] and FPf8T [FAM-^5′(GGGTTCA)3GGG^3′-TAMRA] and the human telomeric sequence F21T [FAM-(GGGTTA)3-GGG^3′- TAMRA][36]^,[43]. The oligonucleotides were prefolded in 10 mM lithium cacodylate buffer (pH 7.2), with 10 mM KCl and 90 mM LiCl (K^+ condition). […] The data obtained were normalized between 0 and 1, and the temperature required for half-denaturationof oligonucleotides corresponded to the emission value of 0.5 was calculated as ΔTm. Each experiment was performed in duplicate with 200 nM of labeled oligonucleotide and 0, 1, 2, or 5 μM of compound under K^+ condition. For each compound, two independent experiments were carried out. The data were plotted using OriginPro 9.1 software (OriginLab Corporation, Northampton, MA).

[6] = test system: Plasmodium telomeric quadruplex FPf8T; assay: FRET melting experiments, FPf8T; format: binding, Plasmodium falciparum; settings: compound at 5 μM, 200 nM oligonucleotide, K+ condition; result in words
Protocol: as §3

[7] = test system: human telomeric quadruplex F21T; assay: FRET melting experiments, F21T; format: binding; settings: compound at 5 μM, 200 nM oligonucleotide, K+ condition; result in words
Protocol: as §3

[8] = test system: HepG2 cell line; assay: Cytotoxicity evaluation, MTT assay; format: cell-based, human; settings: HepG2, 72 h incubation, mean ± SD of three independent experiments
Protocol: as §2

[9] = chloroquine-resistant strain W2, 48 h incubation
[10] = chloroquine-sensitive strain 3D7, 48 h incubation

melting point: > 260 °C
Compound: c1ccc2c(c1)nc(-c1ccc(CNCCCNCCCNCc3ccc(-c4nc5ccccc5n5cccc45)cc3)cc1)c1cccn12 (as salt: ammonium) [1a, Bis{N-[4-(pyrrolo[1,2-a]quinoxalin-4-yl)benzyl]-3-aminopropyl}amine]

melting point: 245 to 248 °C
Compound: CN(CCCNCc1ccc(-c2nc3ccccc3n3cccc23)cc1)CCCNCc1ccc(-c2nc3ccccc3n3cccc23)cc1 (as salt: ammonium) [1b, Bis{N-[4-(pyrrolo[1,2-a]quinoxalin-4-yl)benzyl]-3-aminopropyl}methylamine]

melting point: 188 to 191 °C
Compound: COc1ccc2nc(-c3cccc(CNCCCN(C)CCCNCc4cccc(-c5nc6ccc(OC)cc6n6cccc56)c4)c3)c3cccn3c2c1 (as salt: ammonium) [1o, Bis{N-[3–(8-methoxypyrrolo[1,2-a]quinoxalin-4-yl)benzyl]-3-aminopropyl}methylamine]

melting point: 240 to 242 °C
Compound: COc1ccc2nc(-c3ccc(CNCCCN(C)CCCNCc4ccc(-c5nc6ccc(OC)cc6n6cccc56)cc4)cc3)c3cccn3c2c1 (as salt: ammonium) [1f, Bis{N-[4–(8-methoxypyrrolo[1,2-a]quinoxalin-4-yl)benzyl]-3-aminopropyl}methylamine]

melting point: 209 to 211 °C
Compound: CN(CCCNCc1cccc(-c2nc3ccccc3n3cccc23)c1)CCCNCc1cccc(-c2nc3ccccc3n3cccc23)c1 (as salt: ammonium) [1m, Bis{N-[3-(pyrrolo[1,2-a]quinoxalin-4-yl)benzyl]-3-aminopropyl}methylamine]

melting point: 236 to 239 °C
Compound: COc1ccc2nc(-c3ccc(CNCCCN4CCN(CCCNCc5ccc(-c6nc7ccc(OC)cc7n7cccc67)cc5)CC4)cc3)c3cccn3c2c1 (as salt: ammonium) [1g, Bis{N-[4–(8-methoxypyrrolo[1,2-a]quinoxalin-4-yl)benzyl]-3-aminopropyl}piperazine]

melting point: 184 to 187 °C
Compound: COc1ccc2nc(-c3cccc(CNCCCN(CCCNCc4cccc(-c5nc6ccc(OC)cc6n6cccc56)c4)CCCNCc4cccc(-c5nc6ccc(OC)cc6n6cccc56)c4)c3)c3cccn3c2c1 (as salt: ammonium) [1t, Tris{N-[3–(8-methoxypyrrolo[1,2-a]quinoxalin-4-yl)benzyl]-3-aminopropyl}amine]

More lines, now with the values behind:

Compound: COc1ccc2c(c1)nc(-c1ccc(CNCCCN3CCN(CCCNCc4ccc(-c5nc6cc(OC)ccc6n6cccc56)cc4)CC3)cc1)c1cccn12 [1e, Bis{N-[4–(7-methoxypyrrolo[1,2-a]quinoxalin-4-yl)benzyl]-3-aminopropyl}piperazine]
IC50 [1, 9]: 0.21 ± 0.03 µM
Selectivity Index HepG2/W2 [1]: 6.95
IC50 [2, 10]: 2.62 ± 0.25 µM
Selectivity Index HepG2/3D7 [2]: 0.56
IC50 [3]: 2.52 ± 0.1 µM
CC50 at 72 h [4]: 1.46 ± 0.6 µM
Thermal stabilization (ΔTm) on FPf1T [5]: more active on the Plasmodium sequences with the higher ΔTm
Thermal stabilization (ΔTm) on FPf8T [6]: more active on the Plasmodium sequences with the higher ΔTm

Compound: COc1cccc2nc(-c3ccc(CNCCCN(C)CCCNCc4ccc(-c5nc6cccc(OC)c6n6cccc56)cc4)cc3)c3cccn3c12 (as salt: ammonium) [1h, Bis{N-[4–(9-methoxypyrrolo[1,2-a]quinoxalin-4-yl)benzyl]-3-aminopropyl}methylamine]
melting point: 160 to 162 °C

Compound: CCN(CC)CCCC(C)Nc1ccnc2cc(Cl)ccc12 (stereo not shown) [Chloroquine, reference compound]
IC50 ([1]; W2, 48 h): 0.2 ± 0.03 µM
IC50 [2]: 0.08 ± 0.003 µM
Thermal stabilization (ΔTm) on FPf1T [5]: very slight stabilization
Thermal stabilization (ΔTm) on FPf8T [6]: very slight stabilization
Thermal stabilization (ΔTm) on F21T [7]: very slight stabilization

Compound: N=C(N)c1ccc(OCCCCCOc2ccc(C(=N)N)cc2)cc1 [Pentamidine, reference compound]
IC50 [3]: 5.5 ± 0.8 µM
CC50 [8]: 2.3 ± 0.5 µM

Compound: COc1cccc2nc(-c3ccc(CNCCCN4CCN(CCCNCc5ccc(-c6nc7cccc(OC)c7n7cccc67)cc5)CC4)cc3)c3cccn3c12 [1i, Bis{N-[4–(9-methoxypyrrolo[1,2-a]quinoxalin-4-yl)benzyl]-3-aminopropyl}piperazine]
IC50 [1, 9]: 0.32 ± 0.04 µM
Selectivity Index HepG2/W2 [1]: 4.16
IC50 [2, 10]: 1.28 ± 0.1 µM
Selectivity Index HepG2/3D7 [2]: 1.04
IC50 [3]: 1.58 ± 0.1 µM
CC50 at 72 h [4]: 1.33 ± 0.3 µM
Thermal stabilization (ΔTm) on FPf1T [5]: more active on the Plasmodium sequences with the higher ΔTm
Thermal stabilization (ΔTm) on FPf8T [6]: more active on the Plasmodium sequences with the higher ΔTm

Compound: CCOc1ccn2c1c(-c1ccc(CNCCCN(C)CCCNCc3ccc(-c4nc5ccccc5n5ccc(OCC)c45)cc3)cc1)nc1ccccc12 (as salt: ammonium) [1j, Bis{N-[4–(3-ethoxypyrrolo[1,2-a]quinoxalin-4-yl)benzyl]-3-aminopropyl}methylamine]
melting point: 192 to 195 °C

Compound: OC(c1cc(C(F)(F)F)nc2c(C(F)(F)F)cccc12)C1CCCCN1 (stereo not shown) [Mefloquine, reference compound]
IC50 [1, 9]: 0.032 ± 0.001 µM
IC50 [2, 10]: 0.08 ± 0.008 µM
Thermal stabilization (ΔTm) on FPf1T [5]: very slight stabilization
Thermal stabilization (ΔTm) on FPf8T [6]: very slight stabilization
Thermal stabilization (ΔTm) on F21T [7]: very slight stabilization
